Assay results: the supplement of paper PMC10307832

What was measured:
Experiment in all cases: relative viability (nuclei count vs DMSO), 5 days (fraction); higher = more cells survive
Irinotecan + Crizotinib = compound: CCc1c2c(nc3ccc(OC(=O)N4CCC(N5CCCCC5)CC4)cc13)-c1cc3c(c(=O)n1C2)COC(=O)[C@]3(O)CC [Irinotecan] + C[C@@H](Oc1cc(-c2cnn(C3CCNCC3)c2)cnc1N)c1c(Cl)ccc(F)c1Cl [Crizotinib] (partner 1 µM)
Method in brief: (§1)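 The day after seeding in 1536-well plates, lung cancer cell lines were treated by pin tool with a single drug, or with a fixed anchor-drug dose together with five library-drug doses (not always all listed) in √10 steps. After 5 days, a combined fix-and-stain solution (final 0.05% Triton X-100, 1% formaldehyde, 1 ug/ml Hoechst) was added. Nuclei counted on 4× images gave relative viability as treated counts over vehicle counts, reported as the median of duplicate plates.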

RU-SKI 43 + Phenformin = compound: CC[C@@H](C)CNCC(=O)N1CCC2=C([C@@H]1COC3=CC=CC(=C3)C)C=CS2 [RU-SKI 43] + N=C(N)NC(=N)NCCc1ccccc1 [Phenformin] (partner 250 µM)
Method in brief: as §1

Irinotecan + Phenformin = compound: CCc1c2c(nc3ccc(OC(=O)N4CCC(N5CCCCC5)CC4)cc13)-c1cc3c(c(=O)n1C2)COC(=O)[C@]3(O)CC [Irinotecan] + N=C(N)NC(=N)NCCc1ccccc1 [Phenformin] (partner 250 µM)
Method in brief: as §1

MK-8033 + Tozasertib = compound: Cn1cc(-c2cnc3ccc4ccc(CS(=O)(=O)NCc5ccccn5)cc4c(=O)c3c2)cn1 [MK-8033] + Cc1cc(Nc2cc(N3CCN(C)CC3)nc(Sc3ccc(NC(=O)C4CC4)cc3)n2)n[nH]1 [Tozasertib] (partner 0.1 µM)
Method in brief: as §1

Cell Line	relative viability (Irinotecan + Crizotinib; first compound 0.6325 µM)	relative viability (Irinotecan + Crizotinib; first compound 2 µM)	relative viability (Irinotecan + Crizotinib; first compound 6.325 µM)	relative viability (Irinotecan + Crizotinib; first compound 20 µM)	relative viability (RU-SKI 43 + Phenformin; first compound 0.1 µM)	relative viability (RU-SKI 43 + Phenformin; first compound 0.3162 µM)	relative viability (RU-SKI 43 + Phenformin; first compound 1 µM)	relative viability (RU-SKI 43 + Phenformin; first compound 3.162 µM)	relative viability (RU-SKI 43 + Phenformin; first compound 10 µM)	relative viability (Irinotecan + Phenformin; first compound 0.6325 µM)	relative viability (Irinotecan + Phenformin; first compound 2 µM)	relative viability (Irinotecan + Phenformin; first compound 6.325 µM)	relative viability (Irinotecan + Phenformin; first compound 20 µM)	relative viability (MK-8033 + Tozasertib; first compound 0.02 µM)	relative viability (MK-8033 + Tozasertib; first compound 0.06325 µM)	relative viability (MK-8033 + Tozasertib; first compound 0.2 µM)	relative viability (MK-8033 + Tozasertib; first compound 0.6325 µM)	relative viability (MK-8033 + Tozasertib; first compound 2 µM)
NCI-H1915	0.417	0.369	0.178	0.227	0.391	0.445	0.365	0.376	0.361	0.268	0.27	0.2	0.195	0.435	0.424	0.391	0.439	0.362
SK-MES-1	0.93	0.767	0.272	0.298	0.645	0.778	0.725	0.716	0.63	0.582	0.51	0.264	0.191	0.902	0.825	0.872	0.886	0.822
NCI-H2342					0.606	0.562	0.584	0.528	0.634	0.614	0.59	0.554	0.418	0.571	0.475	0.485	0.377	0.53
NCI-H1299	0.747	0.794	0.453	0.173														
NCI-H1650	0.918	1.23	0.391	0.179	0.423	0.314	0.445	0.386	0.336		0.418	0.34	0.196	0.395	0.325	0.395	0.352	0.276
NCI-H647	0.852	0.365	0.227	0.198	0.631	0.621	0.84	0.686	0.501	0.463	0.644	0.161	0.104	0.276	0.212	0.258	0.0983	0.282
NCI-H1944	0.561	0.323	0.231	0.254	0.214	0.21	0.225	0.213	0.177	0.191	0.187	0.132	0.132	0.237	0.218	0.209	0.261	0.23
NCI-H23	0.514	0.463	0.295	0.348	0.772	0.849	0.836	0.857	0.698	0.586	0.647	0.221	0.252	0.362	0.399	0.253	0.415	0.429
NCI-H1792	0.918	1.05	0.536	0.239	0.267		0.4		0.227	0.273	0.424	0.314	0.28					
HCC-78	0.353	0.312	0.222	0.181	0.735	0.735	0.933	0.739	0.692	0.733	0.546	0.257	0.229	0.482		0.414	1.83	0.404
NCI-H1648															0.404	0.405		0.426
NCI-H1703	0.737	0.58	0.447	0.182														
NCI-H1563	0.865	0.882	0.865	0.344	0.607	0.653	0.706	0.668	0.61	0.634	0.691	0.608	0.38					
NCI-H1623					0.629	0.564	0.619	0.583	0.53	0.548	0.696	0.233	0.219	0.396	0.358	0.428	0.43	0.498
Calu-6	0.548	0.525	0.226	0.114														
IA-LM	0.774	0.375	0.195	0.103														
NCI-H522					0.663	0.746	0.749	0.647	0.684	0.578	0.567	0.514	0.564	0.606	0.477	0.53	0.496	0.599
SW 900					0.626	0.64	0.785	0.687	0.611	0.425	0.664	0.447	0.37	0.583	0.645	0.51	0.615	0.341
NCI-H1793					0.401	0.391	0.464	0.323	0.3		0.347	0.263	0.185	0.332	0.325	0.34	0.416	0.23
A549	0.621	0.511	0.143	0.0565	0.186	0.16	0.156	0.113	0.143		0.198	0.113	0.0897					
NCI-H1395					0.485	0.453	0.476	0.421	0.433	0.403	0.493	0.389	0.399	0.757	0.651	0.735	0.76	0.707
